Assay results from ChEMBL document CHEMBL1124032, “Quantitative structure-activity relationships for the inhibition of Escherichia coli dihydrofolate reductase by 5-(substituted benzyl)-2,4-diaminopyrimidines” (1988).

What was measured:
Escherichia coli [1] = assay: The logarithm of the inverse of the concentration (log 1/C) for the inhibition of Escherichia coli MB 1428 growth by 80%; type: functional
Escherichia coli [2] = assay: The logarithm of the inverse of the concentration (log 1/C) for the inhibition of Escherichia coli 1515 (Escherichia coli) growth by 80%; type: functional
[3] = target: T1, Dihydrofolate reductase (Escherichia coli) (UniProt P0ABQ4)
T1 sequence (whole entry): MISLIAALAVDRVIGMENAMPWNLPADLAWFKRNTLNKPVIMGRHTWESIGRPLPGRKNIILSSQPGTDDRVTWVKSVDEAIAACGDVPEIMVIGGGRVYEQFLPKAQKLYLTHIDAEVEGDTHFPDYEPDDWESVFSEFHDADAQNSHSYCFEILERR
Description: Apparent inhibitory (log 1/Ki) activity against Escherichia coli dihydrofolate reductase

SMILES | Log 1/C (Escherichia coli [1]) | Log 1/C (Escherichia coli [2]) | Log 1/Ki app [3]
CCCCOc1ccc(Cc2cnc(N)nc2N)cc1OC | 4.98 | 5.93 | 9.01
COc1ccc(Cc2cnc(N)nc2N)cc1OCc1ccccc1 | 5.02 | 4.96 | 10
COc1cc(Cc2cnc(N)nc2N)ccc1O | 3.51 | 6.45 | 9.05
CCCOc1cc(Cc2cnc(N)nc2N)cc(OCCC)c1 | – | – | 8.8
CS(=O)(=O)Oc1ccc(Cc2cnc(N)nc2N)cc1 | – | – | 8.15
Nc1ncc(Cc2cc(OCc3ccccc3)cc(OCc3ccccc3)c2)c(N)n1 | – | – | 8.77
Cc1cc(C)cc(Cc2cnc(N)nc2N)c1 | – | – | 8.05
CCCOc1cc(Cc2cnc(N)nc2N)cc(OCC)c1 | – | – | 8.49
CCOc1cc(Cc2cnc(N)nc2N)cc(OCC)c1 | 4.77 | 6.54 | 9.11
Nc1ncc(Cc2ccc(OCc3ccccc3)cc2)c(N)n1 | – | – | 8.7
COc1ccc(Cc2cnc(N)nc2N)cc1C(F)(F)F | – | – | 7.69
CCCCOc1cc(Cc2cnc(N)nc2N)cc(Br)c1OC | 6.24 | 5.02 | 8.96
Nc1ncc(Cc2ccc(OC(F)(F)F)cc2)c(N)n1 | – | – | 6.57
COc1ccc(Cc2cnc(N)nc2N)cc1OS(C)(=O)=O | 4.13 | 6.42 | 8.96
COc1cc(Cc2cnc(N)nc2N)ccc1OCc1ccccc1 | 5.02 | 4.96 | 9.43
CC(=O)Nc1ccc(Cc2cnc(N)nc2N)cc1[N+](=O)[O-] | – | – | 6.97
Nc1ncc(Cc2ccc([N+](=O)[O-])cc2)c(N)n1 | – | – | 6.2
COCCOc1ccc(Cc2cnc(N)nc2N)cc1OC | 4.3 | 5.82 | 9.25
CS(=O)(=O)Oc1cccc(Cc2cnc(N)nc2N)c1 | – | – | 6.92
CCCOc1cc(Cc2cnc(N)nc2N)cc(Br)c1OC | 6.07 | 4.91 | 8.96
COCCOc1cc(Cc2cnc(N)nc2N)ccc1OC | – | – | 8.74
